From patent publication US10195156B2, “Compounds and compositions for intracellular delivery of agents” (ModernaTX, Inc., priority 2015, dated 2019)
Read-outs that look alike come from different tables or passages of the source.

Assays:
[1] = Encapsulation efficiency of RNA (QUANT-IT RIBOGREEN RNA assay); format: physicochemical
Summary of the method: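 RiboGreen fluorescence (ex ~480, em ~520 nm) measured after 15 min at 37 °C on samples at ~5 μg/mL in TE, pH 7.5, ± 2% Triton X-100 solution. After blank subtraction, free RNA is given as intact-sample signal divided by disrupted-sample signal.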

[2] = Concentration of RNA in nanoparticle composition (ultraviolet-visible spectroscopy); format: physicochemical; conditions: Table 5, hEPO mRNA
Experimental: Ultraviolet-visible spectroscopy can be used to determine the concentration of a therapeutic and/or prophylactic agent (e.g., RNA) in nanoparticle compositions. 100 μL of the diluted formulation in 1×PBS is added to 900 μL of a 4:1 (v/v) mixture of methanol and chloroform. After mixing, the absorbance spectrum of the solution is recorded, for example, between 230 nm and 330 nm on a DU 800 spectrophotometer (Beckman Coulter, Beckman Coulter, Inc., Brea, Calif.). The concentration of therapeutic and/or prophylactic agent in the nanoparticle composition can be calculated based on the extinction coefficient of the therapeutic and/or prophylactic agent used in the composition and on the difference between the absorbance at a wavelength of, for example, 260 nm and the baseline value at a wavelength of, for example, 330 nm.

IP-10 = test: Cytokine production induced by sample formulations: IP-10; format: in vivo; conditions: mice, i.v., 0.5 mpk, 6 hours; for IP-10: in pg/mL (unit assumed)
Summary of the method: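 Cytokine levels were quantified at 6 hours in mice given the nanoparticle compositions i.v. at 0.5 mpk. MC3 standard formulation and PBS served as comparators.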

hEPO mRNA expression [3] = test: Expression of hEPO in rats after intravenous administration; format: in vivo; conditions: for hEPO (pg/mL) 3 hours / hEPO (pg/mL) 6 hours / hEPO (pg/mL) 24 hours: Table 6, 0.2 mg/kg or 0.5 mg/kg; for Lipid/MC3 hEPO S.D. (rats): hEPO expression relative to MC3, S.D. rats, intravenous
Experimental: PBS (phosphate buffered saline) is used as control.
Formulations were prepared according to Table 5 and included mRNA encoding hEPO.
[…] After the 48 hour time point, livers and spleens were harvested and frozen.

hEPO mRNA expression [4] = test: Expression of hEPO in CD-1 mice; format: in vivo; conditions: for Lipid/MC3 hEPO CD-1 (mice): hEPO expression relative to MC3, CD-1 mice
Description: FIG. 12 is a set of graphs illustrating hEPO expression levels in CD-1 mice dosed with compounds of the disclosure, compared to MC3. PBS is used as control. […] In graphs A-C numbers 1-14 refer to compositions containing the following: 1: Compound 73, 2: Compound 80, 3: Compound 70; 4: Compound 81; 5: Compound 69; 6: Compound 82; 7: Compound 83; 8: Compound 62; 9: Compound 84; 10: Compound 85; 11: Compound 86; 12: Compound 87; 13: MC3; 14: PBS.
FIG. 13 is a graph showing hEPO levels (pg/mL) in CD-1 mice up to ˜25 h after administration of a nanoparticle composition containing compounds of the disclosure, compared to a composition containing MC3. Numbers 1-13 refer to compositions containing the following: 1: Compound 73, 2: Compound 80, 3: Compound 70; 4: Compound 81; 5: Compound 69; 6: Compound 82; 7: Compound 83; 8: Compound 62; 9: Compound 84; 10: Compound 85; 11: Compound 86; 12: Compound 87; 13: MC3. […]

[5] = Lipid levels in liver and spleen 48 hours after administration; format: in vivo, rats; conditions: for concentration at 48 h: Sprague-Dawley, rat, intravenous
Summary of the method: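 Rats (n=3 or 6) received lipid nanoparticle formulations intravenously at 0.2 mg/kg or 0.5 mg/kg. Liver and spleen were harvested and frozen 48 h after dosing, and the lipid amount remaining in each tissue was measured and expressed as a fraction of the dose.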

[6] = Table 1, rows without footnote mark
[7] = liver, 48 hours after administration, read-out: Lipid in liver
[8] = spleen, 48 hours after administration, read-out: Lipid in spleen
[9] = liver, 48 hours after administration
[10] = spleen, 48 hours after administration

CCCCCC=CCC=CCCCCCCCCC(CCCCCCCCC=CCC=CCCCCC)OC(=O)CCCN(C)C (centres unmarked) [MC3, heptatriaconta-6,9,28,31-tetraen-19-yl 4-(dimethylamino)butanoate, reference compound]
EE (%) [1, 6]: 97.70%
EE (%) ([1]; Table 1b): 97.3%
EE (%) ([1]; Table 5, hEPO mRNA, 50:10:38.5:1.5 Lipid:DSPC:Chol:PEG-DMG): 97.37%
EE (%) ([1]; Table 17-1): 98.0%
EE (%) ([1]; Table 19-1): 97.6%
EE (%) ([1]; Table 20-1, rows without footnote mark): 97.4%
EE (%) ([1]; Table 21-1): 98.1%
Conc. ([2]; 50:10:38.5:1.5 Lipid:DSPC:Chol:PEG-DMG): 470.45 µg/mL
IP-10 (IP-10; Table 4): 438
IP-10 (IP-10; Table 17-4): 500
IP-10 (IP-10; Table 19-4): 323.9
IP-10 (IP-10; Table 20-4, formula (20-I)): 499.1
IP-10 induction, rank or comparison with IL-6 (in words) (IP-10): highest IL-6 and IP-10 levels
hEPO (pg/mL) 3 hours (hEPO mRNA expression [3]; rats, i.v.): 1407947 pg/mL
hEPO (pg/mL) 6 hours (hEPO mRNA expression [3]; rats, i.v.): 1036013 pg/mL
hEPO (pg/mL) 24 hours (hEPO mRNA expression [3]; rats, i.v.): 436243 pg/mL
AUC (0.1 mpk) (hEPO mRNA expression [3]; hEPO expression in S.D. rats, 0.1 mpk): 1.62E+06
AUC (1 mpk) (hEPO mRNA expression [3]; hEPO expression in S.D. rats, 1 mpk): 1.17E+08
Lipid/MC3 hEPO S.D. (rats) (hEPO mRNA expression [3]): 1
hEPO expression in rats, comparison (in words) (hEPO mRNA expression [3]; rats, i.v., 0.2 or 0.5 mg/kg, Tables 6, 7a): highest hEPO expression at each time point
Lipid/MC3 hEPO CD-1 (mice) (hEPO mRNA expression [4]): 1
concentration at 48 h [5, 7]: 21800 ng/g
concentration at 48 h [5, 8]: 2780 ng/g
% remaining dose in liver [5, 9]: 51%
dose remaining in the liver after 48 hours [5, 9]: approximately 60%
% dose remainng Rat liver (48 h) ([5]; rat liver, 48 h): 43.11%
% remaining dose in spleen [5, 10]: 0.44%

CCCCCCCCCCCCN(CCCCCCCCCCCC)CCN(CCCCCCCCCCCC)CCN1CCN(CCN(CCCCCCCCCCCC)CCCCCC(=O)OCCCCC)CC1 [Compound 12, Pentyl 6-((2-(4-(2-((2-(didodecylamino)ethyl)(dodecyl)amino)ethyl)piperazin-1-yl)ethyl)(dodecyl)amino)hexanoate]
EE (%) [1, 6]: 96.9%
EE (%) ([1]; Table 5, hEPO mRNA, 40:20:38.5:1.5 Lipid:DOPE:Chol:PEG-DMG): 93.79%
Conc. ([2]; 40:20:38.5:1.5 Lipid:DOPE:Chol:PEG-DMG): 320.14 µg/mL
IP-10 (IP-10; Table 4): 2382
hEPO (pg/mL) 3 hours (hEPO mRNA expression [3]; rats, i.v.): 592260 pg/mL
hEPO (pg/mL) 6 hours (hEPO mRNA expression [3]; rats, i.v.): 424740 pg/mL
hEPO (pg/mL) 24 hours (hEPO mRNA expression [3]; rats, i.v.): 165404 pg/mL
Lipid/MC3 hEPO S.D. (rats) (hEPO mRNA expression [3]): 0.32
hEPO expression in mice compared with MC3 (in words) (hEPO mRNA expression [4]; Table 7a, mice): substantially higher
Lipid/MC3 hEPO CD-1 (mice) (hEPO mRNA expression [4]): 2.3
concentration at 48 h [5, 7]: 16800 ng/g
concentration at 48 h [5, 8]: 2320 ng/g
% remaining dose in liver [5, 9]: 23.8%
% remaining dose in spleen [5, 10]: 0.22%
